In patent publication US8481531B2, “Bicyclic heterocyclyl derivatives as FGFR kinase inhibitors for therapeutic use” (Astex Therapeutics Ltd, priority 2009, dated 2013):

Experiments:
Ba/F3-TEL-FGFR3 cells = target: T1, Ba/F3-TEL-FGFR3 cells (Homo sapiens, UniProt P22607); experiment: Ba/F3-TEL-FGFR3 cell proliferation assay (Alamar Blue); format: cell-based; conditions: 72 hours; read-out: BaF3-TEL-FGFR3 prolif
T1 construct: fused on or other part: P41212 (Transcription factor ETV6)
Procedure: (§1) Ba/F3-TEL-FGFR3 & Ba/F3 (WT) Cell Proliferation Assays
(§2) Stably transfected Ba/F3-TEL-FGFR3 cells were plated out into black 96-well tissue culture plates with clear bottoms in RPMI medium containing 10% FBS and 0.25 mg/ml G418 at a density of 5×10^3 cells/well (200 μl per well). The parental wild-type Ba/F3 cells (DSMZ no.: ACC 300) were plated out into black 96-well tissue culture plates with clear bottoms in RPMI medium containing 10% FBS and 2 ng/ml mouse IL-3 (R&D Systems) at a density of 2.5×10^3 cells/well (200 μl per well). Plates were placed in an incubator overnight before adding the compounds the following day. Dilutions of compounds were made in DMSO starting at 10 mM and were diluted into the wells to give a final DMSO concentration of 0.1% in assay. Compounds were left on the cells for 72 hours before the plates were removed from the incubator and 20 μl of Alamar Blue™ (Biosource) was added to each well. Plates were placed in the incubator for 4-6 hours before reading plates at 535 nm (excitation)/590 nm (emission) on a Fusion plate reader (Packard). Where inhibition is high an IC50 can be determined.

FGFR3 = target: T2, FGFR3 (Homo sapiens, UniProt P22607); experiment: FGFR3 in vitro kinase inhibitory activity assay (TRF); format: biochemical; conditions: 8 μM ATP, 3 hours; read-out: FGFR3 IC50(μM) or % I
T2 construct: purchased Upstate
T2 sequence (P22607 23-806): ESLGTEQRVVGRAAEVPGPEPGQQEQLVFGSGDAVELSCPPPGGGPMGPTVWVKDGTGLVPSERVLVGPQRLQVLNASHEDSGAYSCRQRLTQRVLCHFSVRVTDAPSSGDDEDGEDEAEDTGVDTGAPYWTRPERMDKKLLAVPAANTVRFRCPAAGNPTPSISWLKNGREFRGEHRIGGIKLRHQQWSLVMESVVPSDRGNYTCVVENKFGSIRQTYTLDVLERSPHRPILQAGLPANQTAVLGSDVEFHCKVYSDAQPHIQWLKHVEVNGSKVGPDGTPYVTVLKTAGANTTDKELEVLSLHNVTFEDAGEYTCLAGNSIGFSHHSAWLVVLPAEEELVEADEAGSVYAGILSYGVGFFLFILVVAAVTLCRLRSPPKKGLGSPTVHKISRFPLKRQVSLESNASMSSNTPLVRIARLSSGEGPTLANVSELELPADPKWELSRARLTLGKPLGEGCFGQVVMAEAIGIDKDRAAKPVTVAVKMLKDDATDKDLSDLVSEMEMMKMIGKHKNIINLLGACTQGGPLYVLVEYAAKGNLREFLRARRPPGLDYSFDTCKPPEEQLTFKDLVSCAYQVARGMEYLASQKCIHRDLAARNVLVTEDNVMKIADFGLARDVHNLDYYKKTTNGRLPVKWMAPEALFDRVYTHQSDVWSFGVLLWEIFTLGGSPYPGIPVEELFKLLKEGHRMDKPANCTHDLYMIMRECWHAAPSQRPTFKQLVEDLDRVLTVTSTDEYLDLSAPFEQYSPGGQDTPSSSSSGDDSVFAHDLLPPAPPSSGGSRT
Procedure: (§3) FGFR3, VEGFR2 and PDGFR in vitro Kinase Inhibitory Activity Assays
(§4) Enzymes (from Upstate), prepared at 2× final concentration, were incubated with test compounds, biotinylated Flt3 substrate (biotin-VASSDNEYFYVDF) (Cell Signalling Technology Inc.) and ATP in the appropriate assay buffer (Table 1). The reaction was allowed to proceed for 3 hours (FGFR3), 1 hour (VEGFR2, PDGFR-beta) at room temperature on a plate shaker at 700 rpm before being stopped with 35 mM EDTA, pH 8 (FGFR3, VEGFR2) or 55 mM EDTA, pH 8 (PDGFR-beta). 5× detection mix (50 mM HEPES pH 7.5, 0.1% BSA, 11.34 nM Eu-anti-pY (PY20) (PerkinElmer) 74 nM SA-XL665 (Cisbio) for FGFR3, 50 mM HEPES, pH 7.5, 0.1% BSA, 11.34 nM Eu-anti-pY (PY20), 187.5 nM SA-XL665 for VEGFR2 and 50 mM HEPES, pH 7.5, 0.1% BSA, 11.34 nM Eu-anti-pY (PT66) (PerkinElmer), 375 nM SA-XL665 (Cisbio) for PDGFR-beta) was then added to each well and the plate sealed and incubated at room temperature for one hour on a plate shaker at 700 rpm. The plate was then read on a Packard Fusion plate reader or a BMG Pherastar both in TRF mode.

[1] = system: parental wild-type Ba/F3 cells; experiment: Ba/F3 (WT) cell proliferation assay (Alamar Blue); format: cell-based; conditions: BaF3, 72 hours, read-out: BaF3 WT prolif; for inhibition at 3 µM / inhibition at 10 µM: Mus musculus; for IC50: with mouse IL-3
Procedure: as §1, §2

VEGFR2 = target: T3, VEGFR2 (Homo sapiens, UniProt P35968); experiment: VEGFR2 in vitro kinase inhibitory activity assay (TRF); format: biochemical; conditions: 0.5 μM ATP, 1 hour; read-out: VEGFR2 IC50(μM) or % I
T3 construct: purchased Upstate
T3 sequence (P35968 20-1356): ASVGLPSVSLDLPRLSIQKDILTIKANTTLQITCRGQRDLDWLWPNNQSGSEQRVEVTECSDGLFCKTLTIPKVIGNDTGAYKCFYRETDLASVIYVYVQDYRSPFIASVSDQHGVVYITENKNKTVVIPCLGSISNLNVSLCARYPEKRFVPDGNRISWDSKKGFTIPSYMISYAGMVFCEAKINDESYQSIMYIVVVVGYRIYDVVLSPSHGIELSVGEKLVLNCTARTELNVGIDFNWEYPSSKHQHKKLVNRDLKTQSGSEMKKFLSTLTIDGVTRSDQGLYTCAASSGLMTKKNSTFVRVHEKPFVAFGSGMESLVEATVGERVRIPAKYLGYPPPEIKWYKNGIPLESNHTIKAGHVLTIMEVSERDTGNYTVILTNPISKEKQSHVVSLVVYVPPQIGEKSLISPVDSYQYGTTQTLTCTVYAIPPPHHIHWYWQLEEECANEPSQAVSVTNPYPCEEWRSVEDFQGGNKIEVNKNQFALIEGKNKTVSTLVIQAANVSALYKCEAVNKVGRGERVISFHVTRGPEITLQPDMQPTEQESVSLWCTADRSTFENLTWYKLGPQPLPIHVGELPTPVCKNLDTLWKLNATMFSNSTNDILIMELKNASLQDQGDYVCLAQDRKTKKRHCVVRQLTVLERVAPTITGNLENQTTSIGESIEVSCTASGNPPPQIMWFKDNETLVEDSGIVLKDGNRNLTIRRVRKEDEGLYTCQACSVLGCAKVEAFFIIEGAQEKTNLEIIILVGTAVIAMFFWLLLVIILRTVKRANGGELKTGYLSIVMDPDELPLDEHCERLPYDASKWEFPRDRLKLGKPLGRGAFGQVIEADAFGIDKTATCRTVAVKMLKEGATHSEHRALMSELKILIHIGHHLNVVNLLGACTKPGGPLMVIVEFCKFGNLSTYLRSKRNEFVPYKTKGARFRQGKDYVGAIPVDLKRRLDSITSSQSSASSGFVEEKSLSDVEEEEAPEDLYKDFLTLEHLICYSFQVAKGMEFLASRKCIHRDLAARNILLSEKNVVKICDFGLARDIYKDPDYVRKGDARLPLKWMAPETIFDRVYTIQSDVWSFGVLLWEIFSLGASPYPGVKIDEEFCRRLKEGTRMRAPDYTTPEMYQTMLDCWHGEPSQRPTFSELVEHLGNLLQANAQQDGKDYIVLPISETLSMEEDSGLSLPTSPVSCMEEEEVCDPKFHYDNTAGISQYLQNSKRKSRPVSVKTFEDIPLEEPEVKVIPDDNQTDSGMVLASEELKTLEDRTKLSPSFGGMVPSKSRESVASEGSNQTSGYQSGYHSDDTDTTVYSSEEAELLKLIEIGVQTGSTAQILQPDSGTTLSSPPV
Procedure: as §3, §4

T1 sequence (P22607 whole entry, change not shown, the tested form may be a part): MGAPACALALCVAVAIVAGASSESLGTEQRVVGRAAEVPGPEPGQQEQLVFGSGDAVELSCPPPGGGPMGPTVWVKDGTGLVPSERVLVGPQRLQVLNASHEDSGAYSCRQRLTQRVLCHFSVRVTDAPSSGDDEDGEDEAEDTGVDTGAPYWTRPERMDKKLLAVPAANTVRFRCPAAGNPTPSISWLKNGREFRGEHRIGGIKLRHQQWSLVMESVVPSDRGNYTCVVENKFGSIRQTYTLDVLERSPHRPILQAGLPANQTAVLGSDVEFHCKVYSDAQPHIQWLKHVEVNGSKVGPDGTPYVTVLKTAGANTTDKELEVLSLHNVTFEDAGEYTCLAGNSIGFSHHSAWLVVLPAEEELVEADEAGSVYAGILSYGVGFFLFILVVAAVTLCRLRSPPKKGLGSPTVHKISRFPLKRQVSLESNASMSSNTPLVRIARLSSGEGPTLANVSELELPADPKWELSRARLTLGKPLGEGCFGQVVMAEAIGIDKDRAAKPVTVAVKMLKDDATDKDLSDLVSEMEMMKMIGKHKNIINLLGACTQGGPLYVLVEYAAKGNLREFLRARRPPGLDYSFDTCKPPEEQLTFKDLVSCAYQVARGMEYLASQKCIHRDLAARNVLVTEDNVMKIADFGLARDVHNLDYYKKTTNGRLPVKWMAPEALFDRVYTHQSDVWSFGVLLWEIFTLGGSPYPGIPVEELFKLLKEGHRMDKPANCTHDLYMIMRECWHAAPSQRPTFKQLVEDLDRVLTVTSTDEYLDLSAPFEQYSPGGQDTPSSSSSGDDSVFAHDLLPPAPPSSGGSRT

SMILES	GI50 (Ba/F3-TEL-FGFR3 cells) [nM]	IC50 (FGFR3) [µM]	inhibition at 3 µM [1] [%]	IC50 (VEGFR2) [µM]	IC50 [1] [nM]	inhibition at 10 µM [1] [%]
CC(C)(C)c1nc(CON=Cc2ccn3c(-c4cccc(NC(=O)NCC(F)(F)F)c4)cnc3c2)no1 [Compound 1-14, 1-(3-{7-[(5-tert-Butyl-[1,2,4]oxadiazol-3-ylmethoxyimino)-methyl]-imidazo[1,2-a]pyridin-3-yl}-phenyl)-3-(2,2,2-trifluoro-ethyl)-urea]	560	0.027	43	0.68	–	–
O=C(NCC(F)(F)F)Nc1cccc(-c2cnc3cc(C=NOCCO)ccn23)c1 [Compound 1-54, 1-(3-{7-[(2-Hydroxy-ethoxyimino)-methyl]-imidazo[1,2-a]pyridin-3-yl}-phenyl)-3-(2,2,2-trifluoro-ethyl)-urea]	500	0.021	–	0.62	510	–
CN1CCN(C(=O)CCON=Cc2ccn3c(-c4cccc(NC(=O)NCC(F)(F)F)c4)cnc3c2)CC1 [Compound 1-51, 1-[3-(7-{[3-(4-Methyl-piperazin-1-yl)-3-oxo-propoxyimino]-methyl}-imidazo[1,2-a]pyridin-3-yl)-phenyl]-3-(2,2,2-trifluoro-ethyl)-urea]	2200	0.033	–	0.88	–	27
CCC(=NOC)c1ccn2c(-c3cccc(NC(=O)NCC(F)(F)F)c3)cnc2c1 [Compound 1-25, 1-[3-(7-{1-Methoxyimino-propyl}-imidazo[1,2-a]pyridin-3-yl)-phenyl]-3-(2,2,2-trifluoro-ethyl)-urea]	320	0.011	46	0.24	–	–
O=C(NCC(F)(F)F)Nc1cccc(-c2cnc3cc(C=NOCCCN4CCOCC4)ccn23)c1 [Compound 1-3, 1-(3-{7-[(3-Morpholin-4-yl-propoxyimino)-methyl]-imidazo[1,2-a]pyridin-3-yl}-phenyl)-3-(2,2,2-trifluoro-ethyl)-urea]	310	0.018	–	0.682	2800	–
C/C(=N\OCCO)c1ccn2c(-c3cccc(NC(=O)NCC(F)(F)F)c3)cnc2c1 [Compound 1-62, 1-[3-(7-{1-2-Hydroxy-ethoxyimino-ethyl}-imidazo[1,2-a]pyridin-3-yl)-phenyl]-3-(2,2,2-trifluoro-ethyl)-urea]	110	0.0035	–	0.051	–	45
O=C(NCC(F)(F)F)Nc1cccc(-c2cnc3cc(/C(=N/OCCO)C4CC4)ccn23)c1 [Compound 1-32, 1-[3-(7-{Cyclopropyl-[2-hydroxy-ethoxyimino]-methyl}-imidazo[1,2-a]pyridin-3-yl)-phenyl]-3-(2,2,2-trifluoro-ethyl)-urea]	1100	0.072	–	0.96	–	50
O=C(NCC(F)(F)F)Nc1cccc(-c2cnc3cc(C=NOCc4ccc(Cl)s4)ccn23)c1 [Compound 1-8, 1-(3-{7-[(5-Chloro-thiophen-2-ylmethoxyimino)-methyl]-imidazo[1,2-a]pyridin-3-yl}-phenyl)-3-(2,2,2-trifluoro-ethyl)-urea]	17.5	0.215	–	> 10	828	–
O=C(NCC(F)(F)F)Nc1cccc(-c2cnc3cc(/C=N/OCCCO)ccn23)c1 [Compound 1-18, 1-(3-{7-[(3-Hydroxy-propoxyimino)-methyl]-imidazo[1,2-a]pyridin-3-yl}-phenyl)-3-(2,2,2-trifluoro-ethyl)-urea]	240	0.019	–	0.4	4700	–
O=C(NCC(F)(F)F)Nc1cccc(-c2cnc3cc(C=NOCc4cccnc4)ccn23)c1 [Compound 1-55, 1-(3-{7-[(Pyridin-3-ylmethoxyimino)-methyl]-imidazo[1,2-a]pyridin-3-yl}-phenyl)-3-(2,2,2-trifluoro-ethyl)-urea]	140	0.0077	51	0.38	–	–
O=C(NCC(F)(F)F)Nc1cccc(-c2cnc3cc(C=NOCC(O)CN4CCC(O)CC4)ccn23)c1 (centres unmarked) [Compound 1-43, 1-[3-(7-{[2-Hydroxy-3-(4-hydroxy-piperidin-1-yl)-propoxyimino]-methyl}-imidazo[1,2-a]pyridin-3-yl)-phenyl]-3-(2,2,2-trifluoro-ethyl)-urea]	6600	0.024	–	0.52	–	0
CC(C)Oc1cc(NC(=O)NCC(F)(F)F)cc(-c2cnc3cc(/C(=N/O)C4CC4)ccn23)c1 [Compound 1-31, 1-[3-(7-{Cyclopropyl-hydroxyimino-methyl}-imidazo[1,2-a]pyridin-3-yl)-5-isopropoxy-phenyl]-3-(2,2,2-trifluoro-ethyl)-urea]	470	0.023	–	1.34	6200	–
CN1CCN(CCCON=Cc2ccn3c(-c4cccc(NC(=O)NCC(F)(F)F)c4)cnc3c2)CC1 [Compound 1-56, 1-[3-(7-{[3-(4-Methyl-piperazin-1-yl)-propoxyimino]-methyl}-imidazo[1,2-a]pyridin-3-yl)-phenyl]-3-(2,2,2-trifluoro-ethyl)-urea]	320	0.019	–	0.38	3000	–
O=C(NCC(F)(F)F)Nc1cccc(-c2cnc3cc(C=NOCCCN4CCCC4)ccn23)c1 [Compound 1-35, 1-(3-{7-[(3-Pyrrolidin-1-yl-propoxyimino)-methyl]-imidazo[1,2-a]pyridin-3-yl}-phenyl)-3-(2,2,2-trifluoro-ethyl)-urea]	560	0.023	28	0.33	–	–
CC(C)Oc1cc(NC(=O)NCC(F)(F)F)cc(-c2cnc3cc(/C(=N\OCCO)C4CC4)ccn23)c1 [Compound 1-64, 1-[3-(7-{Cyclopropyl-[(Z)-2-hydroxyethoxyimino]-methyl}-imidazo[1,2-a]pyridin-3-yl)-5-isopropoxy-phenyl]-3-(2,2,2-trifluoro-ethyl)-urea]	500	0.03	–	1.2	–	–
CO/N=C(\C)c1ccn2c(-c3cccc(NC(=O)NCC(F)(F)F)c3)cnc2c1 [Compound 1-22]	–	0.0051	–	0.092	–	–
Cc1nc(CON=Cc2ccn3c(-c4cccc(NC(=O)NCC(F)(F)F)c4)cnc3c2)cs1 [Compound 1-9, 1-(3-{7-[(2-Methyl-thiazol-4-ylmethoxyimino)-methyl]-imidazo[1,2-a]pyridin-3-yl}-phenyl)-3-(2,2,2-trifluoro-ethyl)-urea]	–	0.014	–	0.68	–	–
COCCN(C)CCON=Cc1ccn2c(-c3cccc(NC(=O)NCC(F)(F)F)c3)cnc2c1 [Compound 1-40, 1-{3-[7-({2-[(2-Methoxy-ethyl)-methyl-amino]-ethoxyimino}-methyl)-imidazo[1,2-a]pyridin-3-yl]-phenyl}-3-(2,2,2-trifluoro-ethyl)-urea]	–	0.028	–	0.72	–	–
O=C(NCC(F)(F)F)Nc1cccc(-c2cnc3cc(C=NOCc4ccccn4)ccn23)c1 [Compound 1-6, 1-(3-{7-[(Pyridin-2-ylmethoxyimino)-methyl]-imidazo[1,2-a]pyridin-3-yl}-phenyl)-3-(2,2,2-trifluoro-ethyl)-urea]	–	0.013	–	0.48	–	–
C/C(=N\OCCCN1CCOCC1)c1ccn2c(-c3cccc(NC(=O)NCC(F)(F)F)c3)cnc2c1 [Compound 1-44, 1-[3-(7-{1-3-Morpholin-4-yl-propoxyimino-ethyl}-imidazo[1,2-a]pyridin-3-yl)-phenyl]-3-(2,2,2-trifluoro-ethyl)-urea]	–	0.0038	–	0.059	–	–
Cn1cncc1CO/N=C/c1ccn2c(-c3cccc(NC(=O)NCC(F)(F)F)c3)cnc2c1 [Compound 1-20, 1-(3-{7-[(3-Methyl-3H-imidazol-4-ylmethoxyimino)-methyl]-imidazo[1,2-a]pyridin-3-yl}-phenyl)-3-(2,2,2-trifluoro-ethyl)-urea]	–	0.0071	–	0.36	–	–
